Reference: patent US10858407B2 (priority 2014, dated 2020)

Tested on: potassium ion channel current of the DRG neurons
Format: cell-based, SD rats
Settings: 5 mM

In the case of Nc1ccncc1 [4AP, 4-aminopyridine], the Current inhibition rate is reported as 0.338 and the “Current recorded after loading” value is reported as 0.9766 nA.
